{
  "source": "patent US20150272920A1",
  "about": "“METHOD FOR TREATING OBESITY WITH ANTI-OBESITY FORMULATIONS AND OMEGA 3 FATTY ACIDS FOR THE REDUCTION OF BODY WEIGHT IN CARDIOVASCULAR DISEASE PATIENTS (CVD) AND DIABETICS” (PIVOTAL THERAPEUTICS INC., priority 2014, published 2015)",
  "origin": "cited, not measured here",
  "target": "CB1R (Homo sapiens, UniProt P21554)",
  "sequence (P21554 whole entry)": "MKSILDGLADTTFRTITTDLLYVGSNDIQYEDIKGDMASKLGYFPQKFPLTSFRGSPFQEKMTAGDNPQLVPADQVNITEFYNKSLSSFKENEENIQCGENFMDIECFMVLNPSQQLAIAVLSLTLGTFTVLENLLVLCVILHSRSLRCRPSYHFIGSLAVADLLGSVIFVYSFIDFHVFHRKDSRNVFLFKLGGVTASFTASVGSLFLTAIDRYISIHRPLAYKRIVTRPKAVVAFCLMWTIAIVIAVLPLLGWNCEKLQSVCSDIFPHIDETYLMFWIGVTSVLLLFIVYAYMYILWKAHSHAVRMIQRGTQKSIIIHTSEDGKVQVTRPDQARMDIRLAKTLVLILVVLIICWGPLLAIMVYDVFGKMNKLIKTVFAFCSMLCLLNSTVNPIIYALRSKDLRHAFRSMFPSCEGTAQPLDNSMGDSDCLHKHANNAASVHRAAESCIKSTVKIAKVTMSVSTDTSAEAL",
  "details": "in vivo",
  "data": [
    {"smiles": "CCNC1(C(N)=O)CCN(c2ncnc3c2nc(-c2ccccc2Cl)n3-c2ccc(Cl)cc2)CC1.Cl", "note": "[CP-945,598]", "values": [
      {"measurement": "Reason for failure of phase III clinical trials (adverse reactions)", "value": "psychiatric adverse reactions, including severe depression and anxiety"}
    ]}
  ]
}
